From patent US20090275574A1, “NOVEL COMPOUNDS-300” (ASTRAZENECA AB, priority 2008, published 2009)

Assays:
[1] = molecular target: T1, hM3 (human Muscarinic receptor subtype 3) (Homo sapiens, UniProt P20309); experiment: Human M3 calcium mobilization FLIPR assay; type: cell-based; settings: hM3 expressed in CHO cells, intracellular Ca2+ release (FLIPR)
T1 construct: expressed in transfected cells; host or cells: CHO cells (ATCC)
Procedure: (§1) Human M1, rat M1, Human M3 and Human M5 Calcium Mobilization FLIPR™ Assay The compound activity in the present invention (EC50 or IC50) is measured using a 384 plate-based imaging assay that monitors drug induced intracellular Ca^2+ release in whole cells. Activation of hM1 (human Muscarinic receptor subtype 1, gene bank access NM_000738), rM1 (rat Muscarinic receptor subtype 1, gene bank access NM_080773), hM3 (human Muscarinic receptor subtype 3, gene bank access NM_000740NM_000740) and hM5 (human Muscarinic receptor subtype 5, gene bank access NM_0121258), receptors expressed in CHO cells (Chinese hamster ovary cells, ATCC) is quantified in a Molecular Devices FLIPR IITM instrument as an increase in fluorescent signal. Inhibition of hM3 and hM5 by compounds is determined by the decrease in fluorescent signal in response to 2 nM acetylcholine activation. […] Prior to experiment, the cell culture medium is removed from the plates by inversion. […] Plates are incubated at 37° C. for 60 minutes prior to start the experiment. The incubation is terminated by washing the cells four times in assay buffer, leaving a residual 25 μl buffer per well. Cell plates are then transferred to the FLIPR, ready for compound additions. The day of experiment, acetylcholine and compounds are diluted in assay buffer in three-fold concentration range (10 points serial dilution) for addition by FLIPR instrument. For all calcium assays, a baseline reading is taken for 10 seconds followed by the addition of 12.5 μl of compounds, resulting in a total well volume of 37.5 μl. Data is collected every second for 60 pictures and then every 6 seconds for 20 pictures prior to the addition of agonist. For hM3 and hM5, before agonist addition, a second baseline reading is taken for 10 seconds followed by the addition of 12.5 μl of agonist or buffer, producing a final volume of 50 μl. After agonist stimulation, the FLIPR continues to collect data every second for 60 pictures and then every 6 seconds for 20 pictures. The fluorescence emission is read using filter 1 (emission 510-570 nm) by the FLIPR on board CCD camera. Calcium mobilization output data are calculated as the maximal relative fluorescence unit (RFU) minus the minimal value for both compound and agonist reading frame (except for hM1 and rM1 using only the maximal RFU). Data are analyzed using sigmoidal fits of a non-linear curve-fitting program (XLfit version 4.2.2 Excel add-in version 4.2.2 build 18 math 1Q version 2.1.2 build 18). All pEC50 and pIC50 values are reported as arithmetic means±standard error of mean of ‘n’ independent experiments.

[2] = molecular target: T2, hM1 (human Muscarinic receptor subtype 1) (Homo sapiens, UniProt P11229); experiment: Human M1 calcium mobilization FLIPR assay; type: cell-based; settings: hM1 expressed in CHO cells, intracellular Ca2+ release (FLIPR)
T2 construct: expressed in transfected cells; host or cells: CHO cells (ATCC)
T2 sequence (P11229 1-460): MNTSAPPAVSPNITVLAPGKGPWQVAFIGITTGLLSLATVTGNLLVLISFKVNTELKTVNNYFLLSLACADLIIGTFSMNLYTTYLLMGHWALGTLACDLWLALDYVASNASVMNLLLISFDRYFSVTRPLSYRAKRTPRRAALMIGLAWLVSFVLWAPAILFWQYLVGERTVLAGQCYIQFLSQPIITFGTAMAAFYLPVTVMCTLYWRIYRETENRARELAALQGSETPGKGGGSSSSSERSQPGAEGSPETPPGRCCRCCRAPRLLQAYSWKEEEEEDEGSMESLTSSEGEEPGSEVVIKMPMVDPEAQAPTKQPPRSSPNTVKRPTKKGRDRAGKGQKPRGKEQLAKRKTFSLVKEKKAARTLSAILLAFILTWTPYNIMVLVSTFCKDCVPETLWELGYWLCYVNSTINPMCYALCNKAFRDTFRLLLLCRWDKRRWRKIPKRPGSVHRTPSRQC
Procedure: as §1

cloned human M2 receptor = molecular target: T3, cloned human M2 receptor (Homo sapiens, UniProt P08172); experiment: hM2 receptor GTPγS binding; type: biochemical; settings: CHO membranes expressing hM2, [35S]GTPγS binding
T3 construct: purchased Perkin-Elmer RBHM2M; host or cells: Chinese hamster ovary cells (CHO), membranes
T3 sequence (P08172 1-466): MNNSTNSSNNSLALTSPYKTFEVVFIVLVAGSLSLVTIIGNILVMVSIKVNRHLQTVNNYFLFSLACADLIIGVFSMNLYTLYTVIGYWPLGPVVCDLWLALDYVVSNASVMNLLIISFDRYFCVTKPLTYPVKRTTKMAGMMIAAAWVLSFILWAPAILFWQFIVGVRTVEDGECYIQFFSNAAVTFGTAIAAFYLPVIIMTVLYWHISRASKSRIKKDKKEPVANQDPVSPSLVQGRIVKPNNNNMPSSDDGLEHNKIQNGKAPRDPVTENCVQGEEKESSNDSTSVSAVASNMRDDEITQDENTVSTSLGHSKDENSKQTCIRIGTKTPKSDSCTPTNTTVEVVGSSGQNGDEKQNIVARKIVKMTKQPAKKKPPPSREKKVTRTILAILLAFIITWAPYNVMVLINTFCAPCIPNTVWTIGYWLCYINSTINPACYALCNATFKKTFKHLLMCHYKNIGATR
Procedure: hM2 Receptor GTPγS Binding Membranes produced from Chinese hamster ovary cells (CHO) expressing the cloned human M2 receptor (human Muscarinic receptor subtype 2, gene bank access NM_000739), are obtained from Perkin-Elmer (RBHM2M). The membranes are thawed at 37° C., passed 3 times through a 23-gauge blunt-end needle, diluted in the GTPγS binding buffer (50 mM Hepes, 20 mM NaOH, 100 mM NaCl, 1 mM EDTA, 5 mM MgCl2, pH 7.4, 100 μM DTT). The EC50, IC50 and Emax of the compounds of the invention are evaluated from 10-point dose-response curves (three fold concentration range) done in 60 μl in 384-well non-specific binding surface plate (Corning). Ten microliters from the dose-response curves plate (5× concentration) are transferred to another 384 well plate containing 25 μl of the following: 5 μg of hM2 membranes, 500 μg of Flashblue beads (Perkin-Elmer) and GDP 25 μM. An additional 15 μl containing 3.3× (60,000 dpm) of GTPγ^35S (0.4 nM final) are added to the wells resulting in a total well volume of 50 μl. Basal and maximal stimulated [^35S]GTPγS binding are determined in absence and presence of 30 μM final of acetylcholine agonist. The membranes/beads mix are pre-incubated for 15 minutes at room temperature with 25 μM GDP prior to distribution in plates (12.5 μM final). The reversal of acetylcholine-induced stimulation (2 μM final) of [^35S]GTPγS binding is used to assay the antagonist properties (IC50) of the compounds. The plates are incubated for 60 minutes at room temperature then centrifuged at 400 rpm for 5 minutes. The radioactivity (cpm) is counted in a Trilux (Perkin-Elmer). Values of EC50, IC50 and Emax are obtained using sigmoidal fits of a non-linear curve-fitting program (XLfit version 4.2.2 Excel add-in version 4.2.2 build 18 math 1Q version 2.1.2 build 18) of percent stimulated [^35S]GTPγS binding vs. log(molar ligand). All pEC50 and pIC50 values are reported as arithmetic means±standard error of mean of ‘n’ independent experiments.

[3] = molecular target: T4, hM5 (human Muscarinic receptor subtype 5) (Homo sapiens, UniProt P08912); experiment: Human M5 calcium mobilization FLIPR assay; type: cell-based; settings: hM5 expressed in CHO cells, intracellular Ca2+ release (FLIPR)
T4 construct: expressed in transfected cells; host or cells: CHO cells (ATCC)
T4 sequence (P08912 1-532): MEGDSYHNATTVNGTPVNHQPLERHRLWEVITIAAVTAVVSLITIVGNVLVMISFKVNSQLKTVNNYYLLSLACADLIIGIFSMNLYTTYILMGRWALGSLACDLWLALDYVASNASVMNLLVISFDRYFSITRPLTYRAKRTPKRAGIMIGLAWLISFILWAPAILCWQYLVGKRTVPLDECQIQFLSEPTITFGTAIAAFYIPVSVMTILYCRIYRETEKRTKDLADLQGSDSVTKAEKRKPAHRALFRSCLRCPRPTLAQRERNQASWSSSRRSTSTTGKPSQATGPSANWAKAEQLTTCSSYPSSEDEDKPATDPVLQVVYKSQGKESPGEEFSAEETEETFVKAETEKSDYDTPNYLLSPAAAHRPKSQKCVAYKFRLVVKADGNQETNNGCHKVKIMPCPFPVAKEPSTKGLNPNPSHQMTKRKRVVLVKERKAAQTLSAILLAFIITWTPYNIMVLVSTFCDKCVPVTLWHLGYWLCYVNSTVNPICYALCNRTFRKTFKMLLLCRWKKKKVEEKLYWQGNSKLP
Procedure: as §1

[4] = one or more of the biological assays described above (unspecified); settings: tested using one or more of the biological assays described above
Procedure: The compound activity in the present invention (EC50 or IC50) is measured using a 384 plate-based imaging assay that monitors drug induced intracellular Ca^2+ release in whole cells. Activation of hM1 (human Muscarinic receptor subtype 1, gene bank access NM_000738), rM1 (rat Muscarinic receptor subtype 1, gene bank access NM_080773), hM3 (human Muscarinic receptor subtype 3, gene bank access NM_000740NM_000740) and hM5 (human Muscarinic receptor subtype 5, gene bank access NM_0121258), receptors expressed in CHO cells (Chinese hamster ovary cells, ATCC) is quantified in a Molecular Devices FLIPR IITM instrument as an increase in fluorescent signal. Inhibition of hM3 and hM5 by compounds is determined by the decrease in fluorescent signal in response to 2 nM acetylcholine activation.
Membranes produced from Chinese hamster ovary cells (CHO) expressing the cloned human M2 receptor (human Muscarinic receptor subtype 2, gene bank access NM_000739), are obtained from Perkin-Elmer (RBHM2M). […] The EC50, IC50 and Emax of the compounds of the invention are evaluated from 10-point dose-response curves (three fold concentration range) done in 60 μl in 384-well non-specific binding surface plate (Corning). […] Basal and maximal stimulated [^35S]GTPγS binding are determined in absence and presence of 30 μM final of acetylcholine agonist. […] The radioactivity (cpm) is counted in a Trilux (Perkin-Elmer). […]

T1 sequence (P20309 whole entry): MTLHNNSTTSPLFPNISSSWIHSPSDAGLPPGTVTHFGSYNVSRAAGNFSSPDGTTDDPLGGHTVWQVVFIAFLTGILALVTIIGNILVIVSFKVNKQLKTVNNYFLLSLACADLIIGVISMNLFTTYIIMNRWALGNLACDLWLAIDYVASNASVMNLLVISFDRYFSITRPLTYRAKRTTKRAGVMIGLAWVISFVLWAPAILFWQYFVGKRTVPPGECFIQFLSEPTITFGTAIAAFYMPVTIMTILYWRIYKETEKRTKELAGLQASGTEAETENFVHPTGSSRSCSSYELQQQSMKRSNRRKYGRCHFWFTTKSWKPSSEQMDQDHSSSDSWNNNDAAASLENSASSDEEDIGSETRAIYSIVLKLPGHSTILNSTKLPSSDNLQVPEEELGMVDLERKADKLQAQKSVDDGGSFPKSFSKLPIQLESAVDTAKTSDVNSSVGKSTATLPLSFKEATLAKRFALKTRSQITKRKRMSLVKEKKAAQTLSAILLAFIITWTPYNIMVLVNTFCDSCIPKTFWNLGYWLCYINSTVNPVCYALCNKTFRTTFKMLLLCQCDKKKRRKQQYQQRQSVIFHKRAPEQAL

Row | EC50 [1] | EC50 [2] | EC50 (cloned human M2 receptor) | EC50 [3] | Compound | efficacy [4]
1 | > 40 µM | 0.058 µM | 1.7 µM | > 14.5 µM | CC(C)OCC1CCC(N2CCC(N3C(=O)NC[C@H]4CCCC[C@@H]43)CC2)CC1 (single isomer, unassigned) [Example 03] | 
2 | > 40 µM | 0.051 µM | > 90 µM | > 40 µM | O=C1CO[C@H]2CCCC[C@@H]2N1C1CCN(C2CCC(COCC3CCC3)CC2)CC1 (single isomer, unassigned) [Example 28] | 
3 | > 40 µM | 0.15 µM | > 90 µM | > 40 µM | O=C1CO[C@H]2CCCC[C@@H]2N1C1CCN(C2CCC(COCC3CCC3)CC2)CC1 (single isomer, unassigned) [Example 29] | 
4 |  |  |  |  | CC(C)OC1CCC(N2CCC(N3C(=O)NC[C@H]4CCCC[C@@H]43)CC2)CC1 (single isomer, unassigned) [diastereomer 2] | does not show efficacy
